The values below are quoted from earlier work in patent US20230364129A1, “TOPICAL COMPOSITIONS” (Prime Performance Research LLC, priority 2022, published 2023).

Data set [1] has as its system human colorectal cancer cells. The note with it: by suppressing NF-κB/STAT1 signaling (Lee, 2018).
The conditions of data set [2]: carnosine 200 μmol/L; hydroxyl and/or peroxy-type radicals (Drafi, 2010).
Data set [3] concerns hind paw oedema, synovitis and destruction of the articular cartilage. The note with it: orally administered; several animal studies (Volpi, 2011).
Data set [4] deals with NF-κB transcription factor in antigen presenting cells.

Regarding `NCCC(=O)N[C@@H](Cc1cnc[nH]1)C(=O)O` [carnosine, beta-alanyl-L-histidine], the “cell cycle arrest and apoptosis” value in data set [1] was “induces cell cycle arrest and apoptosis”. In addition, the “effect on hyaluronan degradation” value in data set [2] is given as “protective action”.

As to Chondroitin sulfate [CS], the “hind paw oedema, synovitis and destruction of the articular cartilage” value in data set [3] is “significantly inhibited”. Moreover, the “activation of the NF-κB transcription factor” value in data set [4] (antigen presenting cells (Zhang, 2015)) is “could activate”. In data set [4] (through the TLR/MyD88 pathway (Zhang, 2015)), the TNF-α production entry is “induce TNF-α production”.
